Experiments:
[1] = tested on: HepG2 and primary rat hepatocytes; test: Release of Annexin V-positive MPs from hepatocytes (flow cytometry); type: cell-based, human (HepG2); rat (primary hepatocytes); conditions: hepatocytes incubated with 0.25 mM FFA up to 24 h, vs controls (FIGS. 2D, 2F, 9)
Protocol: For microparticles (MPs) isolation, HepG2 and primary rat hepatocytes were seeded onto a 100 mm dish and cultured until reaching 80-85% of confluence. Cells were incubated with 0.25 mM of palmitic, stearic, oleic or linoleic acid (FFA) in serum-free DMEM, supplemented with 1.1% penicillin and streptomycin, 1% endotoxin-free bovine serum albumin (BSA), for up to 24 h. […] The uptake of FFAs from hepatocytes was evaluated by Oil red-O staining kit (Cayman, Ann Arbor, Mich., USA) according to the manufacturer instruction. To determine the effect of caspase 3 activity, hepatocytes were treated with a selective caspase 3 inhibitor, Ac-DEVD-CHO (BD Pharmingen, Franklin Lakes, N.J., US). Control cells were incubated with the same serum-free media in association to the vehicle that was used to dissolve the FFAs. After 24 h, the supernatant were collected and centrifuged twice at 3,000 rpm for 15 minutes to remove cell debris and aggregates. The supernatant was then transferred to new tubes and ultracentrifuged at 100,000 g for 90 minutes at 10° C., to avoid contamination of exosomes.
The supernatant was collected in new tubes and used as a MP-free control and the pelleted MPs were resuspended in 200 μl of PBS for flow cytometry or in 500 μl of EGM-2 growth medium for subsequent in vitro studies. The concentration of microparticles μg/mL was determined by the BCA protein assay and different concentrations of MPs (50, 125, 250 and 500 μg/mL) were used to perform the dose-dependent angiogenesis in vitro assays. For selected purposes, in particular for the characterization analyses, crude MPs were purified by 10-70% sucrose gradient ultracentrifugation at 150,000 g for 18 h at 10° C., collected as fractions in new tubes. […]
Flow cytometry analyses for microparticles (or endothelial cells) detection were performed by using BD LSRII Flow Cytometer System (BD Biosciences, San Jose, Calif., USA) and the data were analyzed using FlowJo software (TreeStar Inc., Ashland, Oreg., USA). […]

HUVECs = test: HUVEC tube formation assay; type: cell-based, human; conditions: supernatants from HepG2/primary rat hepatocytes incubated with FFA up to 24 h; VEGF-A positive control
Protocol: HUVECs (0.5-1×10^5 cells per well) were seeded onto a coated 24-well plate culture dishes with 200 μl/cm2 (thick gel method) of Matrigel (BD, Franklin Lakes, N.J., USA) and cultured in EBM-2 basal medium supplemented with 1.1% of streptomycin and penicillin in the presence of 100 ng/mL of VEGF (Peprotech, Rocky Hill, N.J., USA), hepatocytes-derived MPs, MP-free supernatant or conditioned supernatant collected after 24 hours of treatment with FFAs. In selective studies, a specific inhibitor for RhoA-ROCK (Y27632, 10 μM) was used in association with MPs in the treatment of endothelial cells. For the ex vivo studies, PFP isolated from different groups of mice (chow, HF/HCarb, MCD fed mice and mice injected with control RNA, VNN1 siRNA or PBS as vehicle) were ultracentrifuged at 100,000 g for 1 h at 10° C. to pellet the blood MPs. HUVECs were treated with MPs (or blood pure MPs) and incubated for 5 h at 37° C. Tube formation was investigated by using an inverted microscope at 4× magnification and images were captured. Tube formation image analysis was assessed by using Wimtube software (Wimasis, Munich, Germany) and the values referred to total tube length (pixel) were used for statistical and data analysis.

SMILES | Annexin V positive MPs in supernatants (MP formation/release) [1] | tube formation induced by cell-free supernatants of FFA-treated hepatocytes (HUVECs)
CCCCCCCC/C=C\CCCCCCCC(=O)O [oleic acid] | failed to induce any increase | not
CCCCCCCCCCCCCCCC(=O)O [palmitic acid] | marked increase | marked increase
